Experimental data taken from publication PMC12085399, “Quantitative in vitro-to-in vivo extrapolation of human adrenergic and trace amine-associated receptor 1 potencies of pre-workout supplement ingredients using physiologically based kinetic modelling-based reverse dosimetry” (Archives of Toxicology, 2025).
Like-named read-outs stand apart in the source and are kept apart here.

What was measured:
in vitro = details: human; for Papp B→A at 60 min, 10 µM: Caco-2, pH 7.4; for recovery at 60 min, 10 µM: after 60 min, mean ± SD
Procedure: (§1) Caco-2 cells (ATCC, Manassas, VA, USA; passage 30–44) were cultured in DMEM (Gibco, New York, USA) containing 4.5 g/L d-glucose, 4 mM L-glutamine and supplemented with 10% FBS (Gibco, Grand Island, NY, USA), 1% minimal essential medium non-essential amino acids (Gibco, Paisley, UK), 100 units/mL penicillin and 100 µg/mL streptomycin (Gibco, Grand Island, NY, USA). Cells were seeded at a density of 4.0 × 10^4 cells/cm^2 on polyester transwell insert membranes (12 mm insert, 0.4 µm pore size; Corning incorporated, Kennebunk, ME, USA). Cells were maintained in a humidified incubator with 5% CO2 at 37 °C for 21 or 22 days in 0.5 mL and 1.5 mL medium in the apical and basolateral compartments, respectively. The medium was refreshed every two or three days and always one day before the permeability assay.
(§2) On the day of the experiment, cells were washed twice with HBSS without phenol red (pH 7.4; Sigma-Aldrich, Steinheim, Germany) supplemented with 0.35 g/L sodium bicarbonate and 25 mM HEPES and they were equilibrated in this supplemented HBSS for 15 min in a humidified incubator with 5% CO2 at 37 °C. […] These stocks were diluted to a final concentration of 10 µM in pre-warmed supplemented HBSS (final DMSO level = 0.1%). After 15 min, the transepithelial electrical resistance (TEER) was measured with an Epithelial Voltohmmeter (World Precision Instruments, Sarasota, USA). Compound transport was studied in two directions: from the apical to the basolateral compartment (A-B) and from the basolateral to the apical compartment (B-A). For A-B experiments, 450 µL of the compound (10 µM) was added to the apical side and 1200 µL supplemented HBSS was added to the basolateral side. A sample of 50 µL was removed immediately from the apical compartment at time point zero. After 15 and 30 min, samples were taken from the basolateral compartment. Cells were kept in the incubator during the experiment. After 60 min, medium from both compartments was sampled, cells were washed twice with supplemented HBSS and were maintained in the incubator. After 15 min, the TEER was measured again to check for epithelial barrier damage due to compound exposure. After this, cells were lysed in RIPA buffer (Thermo Scientific, Rockford, IL, USA). For B-A experiments, 400 µL of supplemented HBSS was added to the apical side and 1250 µL of the compound (10 µM) was added to the basolateral side. A sample of 50 µL was removed immediately from the basolateral compartment at time point zero. After 15 and 30 min, samples were taken from the apical compartment. After 60 min, samples were taken similarly as in A-B experiments. The sampled medium and cell lysates were stored at −20 °C till the day of the liquid chromatography–mass spectrometry (LC–MS/MS) analysis. All experiments were run in duplicate. The compounds were quantified with LC–MS/MS as described in Sect. "LC–MS/MS analysis".
(§3) Before chemical analysis, cell lysates were two times diluted in ice-cold methanol and centrifuged at 15,000 rpm at 4 °C. The supernatant was then injected into the LC–MS/MS system. Sampled buffer from donor compartments was diluted 40 times in buffer and samples from the receiver compartment were analysed undiluted. Standards were prepared in the same assay buffer to quantify the amount of compound in medium samples. For quantification of compounds in cell lysates, standards were prepared in a mixture of 50% RIPA buffer and 50% methanol.
(§4) All data are presented as mean ± SD.
(§5) For the < Tsi > a value of 3.32 h was used (Grandoni et al. [2019]).

Caco-2 cells = experiment: in vitro; details: scaled from corrected Caco-2 Papp A-B, human
Procedure: as §1, §2, §3, §4, §5

[1] = In vitro hepatic clearance by human liver S9 (compound depletion); type: in vitro ADME
Procedure: In vitro intrinsic hepatic clearance (CLint) values of the phenethylamine analogues were determined in experiments with pooled human liver S9 (HLS9; Corning, Woburn, MA, USA and Gibco, USA), by measuring the rate of compound depletion. Stocks of 1 mM PEA compounds were prepared in DMSO and stocks of 10 mg/mL alamethicin were prepared in methanol. The final incubation mixtures consisted of 1 µM of PEA compound (0.1% DMSO) in 100 mM potassium phosphate buffer with 5 mM magnesium chloride (pH 7.4) supplemented with 0.025 mg/mL alamethicin (0.25% methanol) and 0.1–2 mg/mL HLS9. […] Incubation mixtures were first pre-incubated at 37 °C in a shaking incubator at 300 rpm for 5 min. After 5 min, the reaction was initiated by adding a co-factor mix in supplemented buffer with final concentrations of 3 mM nicotinamide adenine dinucleotide phosphate (NADPH; for oxidation, reduction and hydrolysis), 5 mM uridine diphosphate glucuronic acid (UDPGA; for glucuronidation), 0.2 mM adenosine 3’-phosphate 5’-phosphosulfate lithium salt hydrate (PAPS; for sulfation) and 0.2 mM S-(5’-Adenosyl)-L-methionine p-toluenesulfonate salt (SAM; for methylation). The final incubation volume was 100 µL and incubations were performed in 1.5 mL Safe-Lock Eppendorf tubes (Eppendorf) in a shaking incubator (300 rpm) at 37 °C (Eppendorf Thermomixer). Incubations were terminated by adding 100 µL ice-cold acetonitrile after, 0, 2.5, 5, 10, 20, 40 and 60 min. Then, samples were vortexed, put on ice and stored at -20 °C until the day of the LC–MS/MS analysis. Controls of incubation mixtures without HLS9 or mixtures without co-factors were also included. Two independent experiments, both in duplicate, were performed on different days. On the day of the LC–MS/MS analysis, samples were thawed and centrifuged at 15,000 rpm for 10 min. The supernatant was collected in glass insert vials for LC injection (BGB Analytik, Harderwijk, The Netherlands). Details on the methods of the LC–MS/MS analysis are described in Sect. "LC–MS/MS analysis". After determining the PEA (analogue) amount at the different time points, the CLint was calculated. The natural logarithm of compound concentrations was plotted against time and the slope of this curve represented the elimination rate constant k (in 1/min). The half-life (t1/2 in minutes) was calculated by: ln (2)/k (in 1/min). The volume of incubation (V) in µL/mg protein was determined by: 1000 / HLS9 concentration (in mg/mL). Finally, CLint could be calculated by: CLintμL/min/mg protein=VμL/mg protein∗ln2/t1/2min.
The fraction unbound in these in vitro liver clearance incubations was calculated with the method of (Hallifax and Houston [2006]) in which unspecific binding in HLS9 incubations was assumed to be the same as in liver microsomal incubations. The in vitro obtained HLS9 CLint values were corrected for protein binding in the HLS9 incubation and were scaled to a whole liver by using a scaling factor of 121 mg HLS9/g liver (Houston and Galetin [2008]).

ADRα1A = experiment: PBK modelling-based reverse dosimetry of in vitro EC50 to ED50, ADRα1A; details: predicted human oral ED50 from in vitro EC50 (Pinckaers et al. [2024]) and modelled Cmax plasma venous
Source text: (§6) The in vitro effect concentrations (EC50), for activation of the α1A, α1B, α1D, α2A, α2B, β1 and β2 ADR activation and the activation of TAAR1, were obtained from our previous study (Pinckaers et al. [2024]).

ADRα1B = experiment: PBK modelling-based reverse dosimetry of in vitro EC50 to ED50, ADRα1B; details: predicted human oral ED50 from in vitro EC50 (Pinckaers et al. [2024]) and modelled Cmax plasma venous
Source text: as §6

ADRα1D = experiment: PBK modelling-based reverse dosimetry of in vitro EC50 to ED50, ADRα1D; details: predicted human oral ED50 from in vitro EC50 (Pinckaers et al. [2024]) and modelled Cmax plasma venous
Source text: as §6

ADRα2A = experiment: PBK modelling-based reverse dosimetry of in vitro EC50 to ED50, ADRα2A; details: predicted human oral ED50 from in vitro EC50 (Pinckaers et al. [2024]) and modelled Cmax plasma venous
Source text: as §6

ADRβ2 = experiment: PBK modelling-based reverse dosimetry of in vitro EC50 to ED50, ADRβ2; details: predicted human oral ED50 from in vitro EC50 (Pinckaers et al. [2024]) and modelled Cmax plasma venous
Source text: as §6

TAAR1 = experiment: PBK modelling-based reverse dosimetry of in vitro EC50 to ED50, TAAR1; set-up: species or system human; details: predicted human oral ED50 from in vitro EC50 (Pinckaers et al. [2024]) and modelled Cmax plasma venous
Source text: as §6

[2] = Caco-2, pH 7.4, Papp A-B, Caco-2, apical to basolateral, 10 µM, HBSS pH 7.4, mean ± SD, duplicate

In the case of `COCCc1ccc(OCC(O)CNC(C)C)cc1` (centres unmarked) [Metoprolol, metoprolol, reference compound], the Papp B→A at 60 min, 10 µM (in vitro) is reported as 9.25 ± 0.17 ×10⁻⁶ cm/s and the Papp A→B at 60 min, 10 µM (in vitro; [2]) is reported as 11.2 ± 0.197 ×10⁻⁶ cm/s.
Compound `NCC(O)c1ccc(O)cc1` (centres unmarked) [p-Octopamine, octopamine] has a Papp B→A at 60 min, 10 µM (in vitro) of 0.117 ± 0.0171 ×10⁻⁶ cm/s, a Papp A→B at 60 min, 10 µM (in vitro; Caco-2, pH 7.4, Papp A-B corrected, corrected for the difference between Papp A-B of metoprolol in this study and in literature) of 0.584 ×10⁻⁶ cm/s and a Papp A→B at 60 min, 10 µM (in vitro; [2]) of 0.164 ± 0.0701 ×10⁻⁶ cm/s. For the same compound, the recovery at 60 min, 10 µM (in vitro; Caco-2, pH 7.4, Recovery (A-B), Caco-2, A-B experiments) was 98.9 ± 1.77%, the recovery at 60 min, 10 µM (in vitro; Caco-2, pH 7.4, Recovery (B-A), Caco-2, B-A experiments) was 109 ± 15% and the “fa (fraction absorbed)” value (Caco-2 cells) was 0.947. For the same compound, the “ka (absorption rate constant)” value (Caco-2 cells) was 0.395 h⁻¹, the “Predicted intrinsic hepatic metabolic clearance CLmet” value ([1]; CLint,u scaled to a whole liver, 121 mg HLS9/g liver, human) was 75.4 L/h and the “metabolism in incubations without co-factor mix” value ([1]; HLS9 without co-factor mix) was “metabolized in incubations without co-factor mix”. The k el at 1 µM ([1]; human, pH 7.4) was 0.000203 s⁻¹, the microsomal CLint at 1 µM ([1]; human, s9, pH 7.4, CLint app corrected for unspecific protein (HLS9) binding, read-out: In vitro CLint,u) was 7.06 µL/min/mg and the microsomal CLint at 1 µM ([1]; human, s9, pH 7.4, human liver S9 with co-factor mix (NADPH, UDPGA, PAPS, SAM), 1 µM, read-out: In vitro CLint app) was 6.05 µL/min/mg. The “ADRα1A ED50” value (ADRα1A) was 15.7 mg/kg bw, the “ADRα1B ED50” value (ADRα1B) was 5.58 mg/kg bw and the “ADRα1D ED50” value (ADRα1D) was 1.72 mg/kg bw. For the same compound, the “ADRα2A ED50” value (ADRα2A) was “– (compounds with a dash (-) did not activate the receptors in vitro at concentrations ≤ 300 µM)”, the “ADRβ2 ED50” value (ADRβ2) was “– (compounds with a dash (-) did not activate the receptors in vitro at concentrations ≤ 300 µM)” and the “TAAR1 ED50” value (TAAR1) was 65.8 mg/kg bw.
